The target in this test is T1, DHPR (Escherichia coli, UniProt P04036).
T1 construct: made in house; host or cells: E. coli BL21 (DE3) Gold
The test is described as follows: binding of ligands to DHPR (dissociation constants). On the set-up: species or system E. coli. The text has this: The resonance assignments for DHPR residues Thr80, Thr104 and Met17 were obtained as follows. Differential chemical shift perturbation was observed by comparing the spectra of MIT-DHPR bound to 2,6-pyridinedicarboxylate (PDC) and the spectra of MIT-DHPR bound to 4-Cl PDC. Distinct changes in chemical shift for only one of the methionine ^13C^ε/^1H^ε resonances was detected, which therefore identified the signals as being associated with M17 as shown in FIG. 1D. Both PDC and 4-Cl PDC bound to DHPR with micromolar dissociation constants, so that, at the concentrations used, the protein was saturated in both samples. Therefore, the resultant chemical shift differences originate solely from the small perturbation introduced by binding slightly different ligands. Similarly, resonance assignments were obtained for residues T104 and […] with differential chemical shifts comparing spectra obtained for complexes formed with NADH and 3-acetyl pyridine NADH.

Each structure is given as a SMILES string.

T1 sequence (P04036 whole entry): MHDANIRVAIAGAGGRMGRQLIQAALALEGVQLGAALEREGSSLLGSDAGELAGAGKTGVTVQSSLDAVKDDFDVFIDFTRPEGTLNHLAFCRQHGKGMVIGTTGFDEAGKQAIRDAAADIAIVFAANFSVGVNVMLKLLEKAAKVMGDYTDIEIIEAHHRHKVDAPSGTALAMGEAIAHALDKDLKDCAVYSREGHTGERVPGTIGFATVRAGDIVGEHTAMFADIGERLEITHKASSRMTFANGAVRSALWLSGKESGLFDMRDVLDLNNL

For the compound `O=C(O)c1cccc(C(=O)O)n1` [PDC, 2,6-pyridinedicarboxylate], the dissociation constants result is “micromolar”. As for `O=C(O)c1cc(Cl)cc(C(=O)O)n1` [4-Cl PDC], the entry is “micromolar”.

The record behind these values is patent publication US20050234652A1, “Nuclear magnetic resonance-docking of compounds” (Triad Therapeutics, Inc., priority 2001, published 2005).
